pEC50: −log10 of the molar value.
What was measured:
[1] = system: CHIKV-LR trans-replicase system; assay: CHIKV trans-replicase system, tomato marker by flow cytometry; format: cell-based, Chikungunya virus; conditions: for Percentage of fluorescent tomato marker expressing cells / Reduction of marker expressing cells compared to EtOH control: Huh7 cells; for Percentage of fluorescent tomato marker expressing cells: read at 24 h, EtOH control 8.18±0.45%
Huh7 cells [2] = assay: ATPLite cytotoxicity assay; conditions: 7 μM ivermectin, 24 h
CHIKV-LR [3] = assay: Western blot of CHIKV nsP2, E1 and capsid proteins; format: cell-based, Chikungunya virus; conditions: 9 hpi
CHIKV-LR [4] = assay: Infectious particle production (plaque assay) in siRNA knockdown Huh7 cells; format: cell-based, Chikungunya virus; conditions: CHIKV MOI 10, 10 μM tomatidine, 9 hpi
TMX2 = assay: Western blot of TMX2 in mock- or CHIKV-infected Huh7 cells; format: cell-based, human; conditions: 10 μM tomatidine, 9 hpi
[5] = system: CHIKV in vitro transcribed RNA (CHIK-LR); assay: Virus cell entry-bypass assay: electroporation of in vitro transcribed CHIKV RNA, plaque assay; format: cell-based, Chikungunya virus; conditions: Huh7 cells electroporated with CHIKV RNA, 10 μM tomatidine, 16 h post-transfection
p62 = assay: Western blot of p62 in mock- or CHIKV-infected Huh7 cells; format: cell-based, human; conditions: 10 μM tomatidine, 9 hpi
Huh7 cells [6] = conditions: cited from earlier work
CHIKV-LR [7] = conditions: in vitro; cited from earlier work
CHIKV-LR [8] = assay: Time-trace and time-chase: intracellular CHIKV RNA copies by Q-RT-PCR; format: cell-based, Chikungunya virus; conditions: Huh7 cells; for Intracellular viral RNA load: MOI 10, 10 μM tomatidine at time of infection; for Reduction of intracellular RNA load compared to EtOH control: MOI 10, 10 μM tomatidine
CD98 = assay: Western blot of CD98 in mock- or CHIKV-infected Huh7 cells; format: cell-based, human; conditions: 10 μM tomatidine, 9 hpi
DENV-2 = conditions: DENV-2, in vitro; cited from earlier work
[9] = Huh7, MOI 10, 10 μM tomatidine added at 4 hpi
[10] = Huh7, MOI 10, 10 μM tomatidine added at 6 hpi
[11] = Huh7, MOI 10, 10 μM tomatidine added simultaneous to infection
[12] = CHIKV-infected (MOI 10) Huh7 cells

Compound: ivermectin
- Percentage of fluorescent tomato marker expressing cells ([1]; 7 μM ivermectin added 1 h post-transfection): 2.19±0.5%
- Reduction of marker expressing cells compared to EtOH control ([1]; 7 μM ivermectin, 24 h post-transfection): 73%
- MFI of tomato marker relative to EtOH control ([1]; marker-positive Huh7 cells, 7 μM ivermectin, 24 h post-transfection): 0.4±0.06
- Cytotoxicity of the selected concentration (Huh7 cells [2]): non-toxic

Compound: C[C@H]1CC[C@]2(NC1)O[C@H]1C[C@H]3[C@@H]4CC[C@H]5C[C@@H](O)CC[C@]5(C)[C@H]4CC[C@]3(C)[C@H]1[C@@H]2C [tomatidine, Tomatidine]
- C (capsid) expression compared to EtOH control (CHIKV-LR [3]; [9]): 50%
- E1 expression compared to EtOH control (CHIKV-LR [3]; [9]): 30%
- nsP2 expression compared to EtOH control (CHIKV-LR [3]; [9]): 50%
- C (capsid) expression compared to EtOH control (CHIKV-LR [3]; [10]): 60%
- E1 expression compared to EtOH control (CHIKV-LR [3]; [10]): 40%
- nsP2 expression compared to EtOH control (CHIKV-LR [3]; [10]): 60%
- C (capsid) expression compared to EtOH control (CHIKV-LR [3]; [11]): 46%
- E1 expression compared to EtOH control (CHIKV-LR [3]; [11]): 18%
- nsP2 expression compared to EtOH control (CHIKV-LR [3]; [11]): 50%
- Inhibition of infectious particle production compared to EtOH control (CHIKV-LR [4]; Huh7 cells with CD98 siRNA knock-down): 91.68%
- Inhibition of infectious particle production compared to EtOH control (CHIKV-LR [4]; Huh7 cells with p62 knock-down (siRNA #1)): 86.37%
- Inhibition of infectious particle production compared to EtOH control (CHIKV-LR [4]; Huh7 cells with p62 knock-down (siRNA #4)): 90.82%
- Change in protein expression of TMX2 (TMX2): did not induce any significant change
- Reduction of virus titer [5]: 2.6 log
- Infectious virus titer ([5]; EtOH control 5.0±0.1): 2.4±0.3 Log10 PFU/mL
- Increase of p62 expression compared to solvent control (p62; [12]): 1.8 fold
- Increase of p62 expression compared to solvent control (p62; mock-infected Huh7 cells): 1.7 fold
- Highest non-toxic yet antiviral dose (Huh7 cells [6]): 10 µM
- pEC50 (CHIKV-LR [7]): 5.89
- Percentage of fluorescent tomato marker expressing cells ([1]; 10 μM tomatidine added 1 h post-transfection): 4.4±0.69%
- Reduction of marker expressing cells compared to EtOH control ([1]; 10 μM tomatidine, 24 h post-transfection): 46%
- Intracellular viral RNA load (CHIKV-LR [8]; 1 and 2 hpi (all experimental conditions)): ~ 7 Log10 copies
- Intracellular viral RNA load (CHIKV-LR [8]; 4 hpi, EtOH 8.0±0.2): 7.8±0.1 Log10 copies
- Intracellular viral RNA load (CHIKV-LR [8]; 6 hpi, EtOH 9.7±0.1): 9.2±0.1 Log10 copies
- Intracellular viral RNA load (CHIKV-LR [8]; 8 hpi, EtOH 10.3±0.0): 9.9±0.1 Log10 copies
- Reduction of intracellular RNA load compared to EtOH control (CHIKV-LR [8]; 6 hpi): 74%
- Reduction of intracellular RNA load compared to EtOH control (CHIKV-LR [8]; 8 hpi): 62%
- Intracellular viral RNA copy number vs absence of tomatidine (time-chase) (CHIKV-LR [8]; MOI 10, tomatidine added at 6 hpi, RNA at 8 and 10 hpi, without tomatidine 10.3±0.0 and 10.6±0.0 Log10): Comparable results
- Increase of CD98 expression compared to solvent control (CD98; [12]): 1.4 fold
- Increase of CD98 expression compared to solvent control (CD98; mock-infected Huh7 cells): 1.6 fold
- pEC50 (DENV-2): 6.09
